Source: paper PMC11020070, “Discovery of Protease-Activated Receptor 4 (PAR4)-Tethered Ligand Antagonists Using Ultralarge Virtual Screening” (ACS Pharmacology & Translational Science, 2024)

Assays:
Type in all cases: in vitro ADME
[1] = Modified microsomal clearance assay with or without NADPH, mouse liver microsomes; settings: for Estimated % Contribution to Metabolism Mouse CYPs/FMOs / Estimated % Contribution to Metabolism Mouse Esterases: MLM, from AUC with/without NADPH vs buffer only; for CLint scaled at 1 µM: mouse, liver microsomes, pH 7.4, MLM, reaction initiated by test compound
Protocol: (§1) It is of note that the experimental design for the initial round of microsomal clearance assays adds a test compound to microsomes before the reaction is started by the addition of nicotinamide adenine dinucleotide phosphate (NADPH). This design assumes that the major contributing drug-metabolizing enzymes are cytochrome P450s (CYPs). To investigate this further, the experimental design was modified where the reaction was initiated by the addition of a test compound and was carried out in the presence or absence of NADPH. […] By comparison of the measured intrinsic clearance in the presence and absence of NADPH, the contribution of non-CYP450 drug-metabolizing enzymes can be estimated.
(§2) Mammalian liver microsomes include CYPs, flavin monooxygenases (FMOs), glucuronosyltransferases ([…]), and esterases as part of their enzyme composition. In the presence of NADPH, which serves as a cofactor for CYP- and FMO-dependent reactions, the observed activity can be attributed to these enzymes. Similarly, UGTs require the cofactor uridine diphosphate glucuronic acid (UDPGA). Therefore, when NADPH and UDPGA are absent, any reduction in the compound can be ascribed only to esterase activity or chemical instability. […] This is based on two factors: (1) the stability of the compounds in HP buffer, which is used in the platelet assays, and (2) the low probability of drug metabolism occurring within the platelets themselves. Together, these minimize the chance that any metabolites with distinct PAR4 potencies could confound the results. By comparing the area under the curve of the compound metabolized from the microsomal incubations in the presence or absence of NADPH to the corresponding area under the curve of the buffer-only incubation, the percent contribution of CYPs and FMOs and esterases were estimated (Table S1). The major contributing enzyme toward the metabolism of 12 is esterases in both the human (96%) and mouse (98%). In contrast, the metabolism of 31 was primarily driven by CYPs and FMOs in both HLM (80%) and MLM (88%).
(§3) In separate 96-well plates for each time point, a mixture of 0.1 M potassium phosphate-buffered (pH 7.4), 3 mM MgCl2, and 2.5 mg/mL microsomes were prewarmed at 37 °C for 5 min. Following the preincubation, a 1 μM test compound and 1 mM NADPH (for 3, 7, 15, 25, or 45 min time points) or buffer (for 0 min time point) were added to initiate the reaction. Under standard conditions, reactions were initiated with the addition of NADPH. To delineate the contribution of esterases, some experiments were initiated by the addition of substrate in the presence or absence of NADPH. Plates were incubated at 37 °C under ambient oxygenation. At the respective times, each plate’s reaction was precipitated by the addition of 2 volumes of ice-cold acetonitrile containing an internal standard (carbamazepine, 50 nM). The plates were centrifuged at 4000 rcf (4 °C) for 5 min. The resulting supernatants were transferred and diluted 1:1 (supernatant:water) into new 96-well plates in preparation for LC/MS/MS analysis. Each compound was assayed in triplicate within the same 96-well plate. The in vitro half-life (t1/2, min, eq 1), intrinsic clearance (CLint, mL/min/kg, eq 2), and subsequent predicted hepatic clearance (CLhep, mL/min/kg, eq 3) were determined employing the following equations [drawing 1] 1 [drawing 2] 2 [drawing 3] 3 The estimated percent contribution to metabolism was calculated from the percent substrate lost plots generated from metabolic incubations initiated with the addition of a test compound. Calculations compared the area under the curve (AUC) from conditions in the presence and absence of NADPH and buffer-only (control) conditions (eqs 4 and 5). AUC was calculated by using the trapezoidal method [drawing 4] 4 [drawing 5] 5
(§4) Clint (mL/min/kg) Estimated % Contribution to Metabolism
(§5) Compound Human Mouse Human Mouse +NADPH -NADPH +NADPH -NADPH CYPs/FMOs Esterases CYPs/FMOs Esterases […]

[2] = Modified microsomal clearance assay with or without NADPH, human liver microsomes; settings: for Estimated % Contribution to Metabolism Human CYPs/FMOs / Estimated % Contribution to Metabolism Human Esterases: HLM, from AUC with/without NADPH vs buffer only; for CLint scaled at 1 µM: human, liver microsomes, pH 7.4, HLM, reaction initiated by test compound
Protocol: as §1, §2, §3, §4, §5

[3] = Microsomal stability, mouse liver microsomes; settings: for CLint scaled at 1 µM: pH 7.4, mouse liver microsomes, in vitro, reaction started with NADPH; for mouse CLhep: predicted hepatic clearance from mouse liver microsomes
Protocol: The metabolic stability of each compound was investigated in mouse and human hepatic microsomes using substrate depletion methodology (% parent compound remaining). Prior to use, microsomes were removed from the freezer and allowed to thaw in a 37 °C water bath before being placed on wet ice.
as §3
The analysis of in vitro samples from microsomal stability or plasma protein binding experiments was determined by employing LCMS/MS with an electrospray ionization-enabled 5500 Sciex instrument (Sciex, Foster City, CA) that was coupled to Agilent HPLC pumps and an autosampler (Agilent Technologies, Santa Clara, CA). Analytes were separated by gradient elution using a Kinetex C18 column (2.1 mm × 50 mm, 5 μm; Phenomenex, Torrance, CA) warmed to 35 °C. Mobile phase A was 0.5% formic acid in water, and mobile phase B was 0.5% formic acid in acetonitrile. […] The total run time was 2.8 min, and the HPLC flow rate was 0.5 mL/min. Mass spectral analyses were performed using multiple reaction monitoring, with transitions and voltages specific for each analyte using a Turbo Ion Spray source (source temperature of 500 °C) in positive ionization mode (5.0 kV spray voltage). Multiple reaction monitoring transitions were the following: 6110B8 (m/z 345.02 → 149.03, DP = 31; EP = 10; CE = 37 and CXP = 14), 6G3R (m/z 421.06 → 225.12, DP = 91; EP = 10; CE = 39 and CXP = 12), 5D22 (m/z 309.068 → 211.16, DP = 131; EP = 10; CE = 29 and CXP = 12), and carbamazepine (m/z 237 → 194, DP = 96; EP = 10; CE = 25 and CXP = 8). Data were analyzed using OS Sciex Analyst 1.5.1 (SCIEX, Framingham, MA), Graphpad Prism 10.1.0 (GraphPad Software, Boston, Massachusetts), and Microsoft Excel version 2310 (Microsoft, Redmond, WA).

Structure (SMILES) | Estimated % Contribution to Metabolism Mouse CYPs/FMOs [1] | Estimated % Contribution to Metabolism Mouse Esterases [1] | CLint scaled at 1 µM ([1]; +NADPH) | CLint scaled at 1 µM ([1]; -NADPH) | Estimated % Contribution to Metabolism Human CYPs/FMOs [2] | Estimated % Contribution to Metabolism Human Esterases [2] | CLint scaled at 1 µM ([2]; +NADPH) | CLint scaled at 1 µM ([2]; -NADPH) | CLint scaled at 1 µM [3] | mouse CLhep [3]
Cn1nc(C(=O)Nc2n[nH]c(-c3c(F)cccc3F)n2)cc1C1CC1 [Compound 12] | 2% | 98% | 9820 mL/min/kg | 6240 mL/min/kg | 4% | 96% | 642 mL/min/kg | 352 mL/min/kg | 11500 mL/min/kg | 89.3 mL/min/kg
O=C(Nc1nc[nH]n1)c1nn(-c2ccccc2)c2c1CCC2 [Compound 17] | – | 0% | 789 mL/min/kg | 27.8 mL/min/kg | 39% | 61% | 26.8 mL/min/kg | 12.4 mL/min/kg | 2440 mL/min/kg | 86.8 mL/min/kg
O=C(Nc1n[nH]c(-c2ccc(F)cc2F)n1)c1nn(-c2ccccc2)c2c1CCCC2 [Compound 31] | 88% | 12% | 10400 mL/min/kg | 32.3 mL/min/kg | 80% | 20% | 144 mL/min/kg | 15.6 mL/min/kg | 19900 mL/min/kg | 89.6 mL/min/kg
